Measured values reported in US8969360B2, “Compounds useful as inhibitors of ATR kinase” (Vertex Pharmaceuticals Incorporated, priority 2013, dated 2015).

Columns and labels:
[1] = system: HCT116 colorectal cancer cells; test: Cisplatin Sensitization Assay (96 h cell viability MTS); assay type: cell-based; conditions: concentration of compound required to reduce the IC50 of Cisplatin alone by at least 3-fold; HCT116, 96 h MTS
Protocol: Compounds can be screened for their ability to sensitize HCT116 colorectal cancer cells to Cisplatin using a 96 h cell viability (MTS) assay. […] Compounds and Cisplatin are then both added simultaneously to the cell media in 2-fold serial dilutions from a top final concentration of 10 μM as a full matrix of concentrations in a final cell volume of 200 μl, and the cells are then incubated at 37° C. in 5% CO2. After 96 h, 40 μl of MTS reagent (Promega G358a) is added to each well and the cells are incubated for 1 h at 37° C. in 5% CO2. Finally, absorbance is measured at 490 nm using a SpectraMax Plus 384 reader (Molecular Devices) and the concentration of compound required to reduce the IC50 of Cisplatin alone by at least 3-fold (to 1 decimal place) can be reported.
Compounds with a Cisplatin sensitization value of <0.02 μM are marked with “+++.” Compounds with a Cisplatin sensitization value>0.02 μM but <0.2 μM are marked with “++.” Compounds with a Cisplatin sensitization value >0.2 μM but <5 μM are marked with “+.”

[2] = biological target: T1, ATR kinase (Homo sapiens, UniProt Q13535); test: ATR Inhibition Assay (radioactive-phosphate incorporation); assay type: biochemical; conditions: Ki(app); 5 nM full-length ATR, 10 μM ATP, 800 μM target peptide, 25° C.
T1 construct: Assays were carried out at 25° C. in the presence of 5 nM full-length ATR
Protocol: Compounds were screened for their ability to inhibit ATR kinase using a radioactive-phosphate incorporation assay. Assays were carried out in a mixture of 50 mM Tris/HCl (pH 7.5), 10 mM MgCl2 and 1 mM DTT. Final substrate concentrations were 10 μM [γ-33P]ATP (3 mCi 33P ATP/mmol ATP, Perkin Elmer) and 800 μM target peptide (ASELPASQPQPFSAKKK (SEQ. ID NO: 1)).
Assays were carried out at 25° C. in the presence of 5 nM full-length ATR. An assay stock buffer solution was prepared containing all of the reagents listed above, with the exception of ATP and the test compound of interest. 13.5 μL of the stock solution was placed in a 96 well plate followed by addition of 2 μL of DMSO stock containing serial dilutions of the test compound (typically starting from a final concentration of 15 μM with 3-fold serial dilutions) in duplicate (final DMSO concentration 7%). The plate was pre-incubated for 10 minutes at 25° C. and the reaction initiated by addition of 15 μL [γ-33P]ATP (final concentration 10 μM).
The reaction was stopped after […] by the addition of 30 μL, 0.1M phosphoric acid containing 2 mM ATP. A multiscreen phosphocellulose filter 96-well plate (Millipore, Cat no. MAPHN0B50) was pretreated with 100 μL 0.2M phosphoric acid prior to the addition of 45 μL of the stopped assay mixture. The plate was washed with 5×200 μL 0.2M phosphoric acid. After drying, 100 μL Optiphase ‘SuperMix’ liquid scintillation cocktail (Perkin Elmer) was added to the well prior to scintillation counting (1450 Microbeta Liquid Scintillation Counter, Wallac).
After removing mean background values for all of the data points, Ki(app) data were calculated from non-linear regression analysis of the initial rate data using the Prism software package (GraphPad Prism version 3.0cx for Macintosh, GraphPad Software, San Diego Calif., USA).
Compounds with a Ki value of <0.01 μM are marked with “+++.” Compounds with a Ki value >0.01 μM but <1 μM are marked with “++.” Compounds with a Ki value >1 μM but <5 μM are marked with “+.”

T1 sequence (Q13535 whole entry): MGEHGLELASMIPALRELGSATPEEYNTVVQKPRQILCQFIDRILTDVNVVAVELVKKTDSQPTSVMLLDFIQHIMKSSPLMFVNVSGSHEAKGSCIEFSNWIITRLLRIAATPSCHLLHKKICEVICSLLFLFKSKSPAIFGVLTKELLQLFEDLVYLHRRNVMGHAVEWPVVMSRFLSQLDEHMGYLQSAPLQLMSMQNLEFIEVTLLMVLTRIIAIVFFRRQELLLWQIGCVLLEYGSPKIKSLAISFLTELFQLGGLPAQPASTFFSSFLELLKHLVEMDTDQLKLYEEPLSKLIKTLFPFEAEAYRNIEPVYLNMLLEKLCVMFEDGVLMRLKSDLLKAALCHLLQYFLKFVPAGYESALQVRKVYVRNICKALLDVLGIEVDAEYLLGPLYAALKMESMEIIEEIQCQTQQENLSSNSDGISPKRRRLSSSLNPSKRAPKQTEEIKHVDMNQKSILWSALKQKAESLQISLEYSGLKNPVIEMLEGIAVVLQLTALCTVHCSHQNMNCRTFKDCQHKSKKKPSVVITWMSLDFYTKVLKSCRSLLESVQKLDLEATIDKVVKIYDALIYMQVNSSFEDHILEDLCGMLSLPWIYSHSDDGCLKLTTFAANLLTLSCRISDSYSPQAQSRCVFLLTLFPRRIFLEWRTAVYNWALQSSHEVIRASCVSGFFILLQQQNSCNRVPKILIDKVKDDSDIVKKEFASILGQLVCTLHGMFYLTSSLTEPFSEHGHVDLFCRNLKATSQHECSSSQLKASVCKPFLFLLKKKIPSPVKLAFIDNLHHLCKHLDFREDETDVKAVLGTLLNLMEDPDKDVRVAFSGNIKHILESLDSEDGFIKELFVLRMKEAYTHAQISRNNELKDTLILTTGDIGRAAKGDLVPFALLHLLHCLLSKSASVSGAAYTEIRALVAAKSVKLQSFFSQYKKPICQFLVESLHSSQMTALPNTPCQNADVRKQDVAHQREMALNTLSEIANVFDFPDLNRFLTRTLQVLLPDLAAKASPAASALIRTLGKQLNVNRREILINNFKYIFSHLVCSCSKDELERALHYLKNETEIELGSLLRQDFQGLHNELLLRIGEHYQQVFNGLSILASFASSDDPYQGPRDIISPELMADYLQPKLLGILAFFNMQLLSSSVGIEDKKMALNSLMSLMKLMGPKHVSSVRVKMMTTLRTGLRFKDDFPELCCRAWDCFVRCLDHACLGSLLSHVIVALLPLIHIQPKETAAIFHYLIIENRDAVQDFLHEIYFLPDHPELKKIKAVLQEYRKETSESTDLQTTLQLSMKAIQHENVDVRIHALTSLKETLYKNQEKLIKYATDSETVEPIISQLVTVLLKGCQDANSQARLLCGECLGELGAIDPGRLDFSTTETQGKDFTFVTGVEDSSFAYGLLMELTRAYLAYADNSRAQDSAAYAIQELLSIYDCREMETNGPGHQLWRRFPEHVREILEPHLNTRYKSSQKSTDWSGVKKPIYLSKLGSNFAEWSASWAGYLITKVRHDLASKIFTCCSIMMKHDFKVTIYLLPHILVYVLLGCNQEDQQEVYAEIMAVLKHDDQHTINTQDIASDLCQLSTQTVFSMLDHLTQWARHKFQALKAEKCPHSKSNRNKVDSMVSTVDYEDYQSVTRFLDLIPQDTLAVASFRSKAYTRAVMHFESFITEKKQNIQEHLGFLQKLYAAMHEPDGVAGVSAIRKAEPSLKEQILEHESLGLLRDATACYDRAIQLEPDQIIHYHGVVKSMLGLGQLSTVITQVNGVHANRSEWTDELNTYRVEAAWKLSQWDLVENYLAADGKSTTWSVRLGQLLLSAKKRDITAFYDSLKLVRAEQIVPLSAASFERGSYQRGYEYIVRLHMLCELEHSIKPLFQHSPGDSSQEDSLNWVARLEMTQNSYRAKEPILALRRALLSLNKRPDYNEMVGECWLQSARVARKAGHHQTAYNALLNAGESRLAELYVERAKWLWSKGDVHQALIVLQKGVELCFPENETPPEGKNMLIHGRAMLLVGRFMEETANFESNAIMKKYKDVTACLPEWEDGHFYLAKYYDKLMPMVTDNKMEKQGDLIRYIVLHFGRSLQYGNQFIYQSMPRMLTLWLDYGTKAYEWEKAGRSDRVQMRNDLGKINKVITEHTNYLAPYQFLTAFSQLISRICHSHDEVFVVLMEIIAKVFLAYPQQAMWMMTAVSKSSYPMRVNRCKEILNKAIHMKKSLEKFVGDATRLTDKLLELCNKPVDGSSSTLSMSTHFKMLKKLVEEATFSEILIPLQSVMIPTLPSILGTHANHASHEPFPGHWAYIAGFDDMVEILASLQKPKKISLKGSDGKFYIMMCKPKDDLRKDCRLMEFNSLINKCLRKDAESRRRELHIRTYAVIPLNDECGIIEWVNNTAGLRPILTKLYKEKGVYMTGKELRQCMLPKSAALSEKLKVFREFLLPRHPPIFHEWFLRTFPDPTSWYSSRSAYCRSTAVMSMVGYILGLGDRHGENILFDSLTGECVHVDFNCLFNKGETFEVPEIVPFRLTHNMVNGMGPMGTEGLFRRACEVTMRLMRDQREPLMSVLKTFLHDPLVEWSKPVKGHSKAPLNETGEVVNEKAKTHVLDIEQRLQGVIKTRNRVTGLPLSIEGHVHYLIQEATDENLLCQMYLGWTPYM

Row | SMILES | Synergy with Cisplatin [1] | Ki [2] [nM]
1 | Cc1ccncc1NC(=O)c1c(N)nn2ccc(C(F)(F)F)nc12 [I-C-1, 2-amino-N-(4-methylpyridin-3-yl)-5-(trifluoromethyl)pyrazolo[1,5-a]pyrimidine-3-carboxamide] | ++ (Compounds with a Cisplatin sensitization value>0.02 μM but <0.2 μM are marked with “++.”) | 10 to 1000
2 | Nc1nn2ccc(C(F)(F)F)nc2c1C(=O)Nc1cnccc1-c1ccccc1 [I-C-2, 2-amino-N-(4-phenylpyridin-3-yl)-5-(trifluoromethyl)pyrazolo[1,5-a]pyrimidine-3-carboxamide] | + (Compounds with a Cisplatin sensitization value >0.2 μM but <5 μM are marked with “+.”) | 10 to 1000
3 | Cc1ccncc1NC(=O)c1c(N)nn2ccc(OCCN(C)C)nc12 [I-C-3, 2-amino-5-(2-(dimethylamino)ethoxy)-N-(4-methylpyridin-3-yl)pyrazolo[1,5-a]pyrimidine-3-carboxamide] | ++ (Compounds with a Cisplatin sensitization value>0.02 μM but <0.2 μM are marked with “++.”) | 1000 to 5000
4 | CN1CCN(c2ccncc2NC(=O)c2c(N)nn3ccc(C(F)(F)F)nc23)CC1 [I-N-1, 2-amino-N-(4-(4-methylpiperazin-1-yl)pyridin-3-yl)-5-(trifluoromethyl)pyrazolo[1,5-a]pyrimidine-3-carboxamide] | + (Compounds with a Cisplatin sensitization value >0.2 μM but <5 μM are marked with “+.”) | 10 to 1000
5 | NCC1CCN(c2ccncc2NC(=O)c2c(N)nn3ccc(C(F)(F)F)nc23)CC1 [I-N-2, 2-amino-N-(4-(4-(aminomethyl)piperidin-1-yl)pyridin-3-yl)-5-(trifluoromethyl)pyrazolo[1,5-a]pyrimidine-3-carboxamide] | – | 10 to 1000
6 | Nc1nn2ccc(C(F)(F)F)nc2c1C(=O)Nc1cnccc1N1CCN(CCO)CC1 [I-N-3, 2-amino-N-(4-(4-(2-hydroxyethyl)piperazin-1-yl)pyridin-3-yl)-5-(trifluoromethyl)pyrazolo[1,5-a]pyrimidine-3-carboxamide] | – | 10 to 1000
7 | COc1ccncc1NC(=O)c1c(N)nn2ccc(C(F)(F)F)nc12 [I-O-1, 2-amino-N-(4-methoxypyridin-3-yl)-5-(trifluoromethyl)pyrazolo[1,5-a]pyrimidine-3-carboxamide] | +++ (Compounds with a Cisplatin sensitization value of <0.02 μM are marked with “+++.”) | < 10
8 | CCOc1ccncc1NC(=O)c1c(N)nn2ccc(C(F)(F)F)nc12 [I-O-2, 2-amino-N-(4-ethoxypyridin-3-yl)-5-(trifluoromethyl)pyrazolo[1,5-a]pyrimidine-3-carboxamide] | +++ (Compounds with a Cisplatin sensitization value of <0.02 μM are marked with “+++.”) | < 10
9 | Nc1nn2ccc(C(F)(F)F)nc2c1C(=O)Nc1cnccc1OCC(F)(F)F [I-O-3, 2-amino-N-(4-(2,2,2-trifluoroethoxy)pyridin-3-yl)-5-(trifluoromethyl)pyrazolo[1,5-a]pyrimidine-3-carboxamide] | +++ (Compounds with a Cisplatin sensitization value of <0.02 μM are marked with “+++.”) | < 10
10 | CC(C)Oc1ccncc1NC(=O)c1c(N)nn2ccc(C(F)(F)F)nc12 [I-O-4, 2-amino-N-(4-isopropoxypyridin-3-yl)-5-(trifluoromethyl)pyrazolo[1,5-a]pyrimidine-3-carboxamide] | +++ (Compounds with a Cisplatin sensitization value of <0.02 μM are marked with “+++.”) | 10 to 1000
11 | Nc1nn2ccc(C(F)(F)F)nc2c1C(=O)Nc1cnccc1OC1CCC1 [I-O-5, 2-amino-N-(4-cyclobutoxypyridin-3-yl)-5-(trifluoromethyl)pyrazolo[1,5-a]pyrimidine-3-carboxamide] | +++ (Compounds with a Cisplatin sensitization value of <0.02 μM are marked with “+++.”) | 10 to 1000
12 | Nc1nn2ccc(C(F)(F)F)nc2c1C(=O)Nc1cnccc1OCC1CC1 [I-O-6, 2-amino-N-(4-(cyclopropylmethoxy)pyridin-3-yl)-5-(trifluoromethyl)pyrazolo[1,5-a]pyrimidine-3-carboxamide] | +++ (Compounds with a Cisplatin sensitization value of <0.02 μM are marked with “+++.”) | < 10
13 | Nc1nn2ccc(C(F)(F)F)nc2c1C(=O)Nc1cnccc1OC1CCC2(CC1)OCCO2 [I-O-7, N-(4-(1,4-dioxaspiro[4.5]decan-8-yloxy)pyridin-3-yl)-2-amino-5-(trifluoromethyl)pyrazolo[1,5-a]pyrimidine-3-carboxamide] | – | 10 to 1000
14 | COCCOc1ccncc1NC(=O)c1c(N)nn2ccc(C(F)(F)F)nc12 [I-O-8, 2-amino-N-(4-(2-methoxyethoxy)pyridin-3-yl)-5-(trifluoromethyl)pyrazolo[1,5-a]pyrimidine-3-carboxamide] | +++ (Compounds with a Cisplatin sensitization value of <0.02 μM are marked with “+++.”) | 10 to 1000
15 | Nc1nn2ccc(C(F)(F)F)nc2c1C(=O)Nc1cnccc1O[C@@H]1CCOC1 [I-O-9, (R)-2-amino-N-(4-((tetrahydrofuran-3-yl)oxy)pyridin-3-yl)-5-(trifluoromethyl)pyrazolo[1,5-a]pyrimidine-3-carboxamide] | +++ (Compounds with a Cisplatin sensitization value of <0.02 μM are marked with “+++.”) | 10 to 1000
16 | Nc1nn2ccc(C(F)(F)F)nc2c1C(=O)Nc1cnccc1O[C@H]1CCOC1 [I-O-10, (S)-2-amino-N-(4-((tetrahydrofuran-3-yl)oxy)pyridin-3-yl)-5-(trifluoromethyl)pyrazolo[1,5-a]pyrimidine-3-carboxamide] | +++ (Compounds with a Cisplatin sensitization value of <0.02 μM are marked with “+++.”) | 10 to 1000
17 | Nc1nn2ccc(C(F)(F)F)nc2c1C(=O)Nc1cnccc1OC1CCOCC1 [I-O-11, 2-amino-N-(4-((tetrahydro-2H-pyran-4-yl)oxy)pyridin-3-yl)-5-(trifluoromethyl)pyrazolo[1,5-a]pyrimidine-3-carboxamide] | +++ (Compounds with a Cisplatin sensitization value of <0.02 μM are marked with “+++.”) | 10 to 1000
18 | Nc1nn2ccc(C(F)(F)F)nc2c1C(=O)Nc1cnccc1OC1CCCOC1 (centres unmarked) [I-O-12, 2-amino-N-(4-((tetrahydro-2H-pyran-3-yl)oxy)pyridin-3-yl)-5-(trifluoromethyl)pyrazolo[1,5-a]pyrimidine-3-carboxamide] | +++ (Compounds with a Cisplatin sensitization value of <0.02 μM are marked with “+++.”) | 10 to 1000
19 | Nc1nn2ccc(C(F)(F)F)nc2c1C(=O)Nc1cnccc1OC1CN2CCC1CC2 (centres unmarked) [I-O-29, 2-amino-N-(4-(quinuclidin-3-yloxy)pyridin-3-yl)-5-(trifluoromethyl)pyrazolo[1,5-a]pyrimidine-3-carboxamide] | – | 10 to 1000
20 | CN1CC(Oc2ccncc2NC(=O)c2c(N)nn3ccc(C(F)(F)F)nc23)C1 [I-O-39, 2-amino-N-(4-((1-methylazetidin-3-yl)oxy)pyridin-3-yl)-5-(trifluoromethyl)pyrazolo[1,5-a]pyrimidine-3-carboxamide] | – | 10 to 1000
21 | CC(C)(C#N)c1ccn2nc(N)c(C(=O)Nc3cnccc3OC3CNC3)c2n1 [I-O-53, 2-amino-N-(4-(azetidin-3-yloxy)pyridin-3-yl)-5-(2-cyanopropan-2-yl)pyrazolo[1,5-a]pyrimidine-3-carboxamide] | – | 10 to 1000
22 | COc1ccncc1NC(=O)c1c(N)nn2ccc(N3CC4(COC4)C3)nc12 [I-O-69, 2-amino-N-(4-methoxypyridin-3-yl)-5-(2-oxa-6-azaspiro[3.3]heptan-6-yl)pyrazolo[1,5-a]pyrimidine-3-carboxamide] | – | 10 to 1000
23 | CNC1CCN(c2ccn3nc(N)c(C(=O)Nc4cnccc4OC)c3n2)C1 (centres unmarked) [I-O-81, 2-amino-N-(4-methoxypyridin-3-yl)-5-(3-(methylamino)pyrrolidin-1-yl)pyrazolo[1,5-a]pyrimidine-3-carboxamide] | – | 10 to 1000
